System: MV-4-11 cells
Test: Gene expression microarray analysis (Affymetrix PrimeView) and GSEA
Format: cell-based, human
Parameters: RFU PODN (11730768_x_at) / Fold change /veh PODN (11730768_x_at) / RFU LINC00158 (11744669_a_at) / Fold change /veh LINC00158 (11744669_a_at) / RFU DUSP10 (11751237_a_at) / Fold change /veh DUSP10 (11751237_a_at) / RFU ID3 (11757404_x_at) / Fold change /veh ID3 (11757404_x_at) / RFU PLEKHG5 (11737974_s_at) / Fold change /veh PLEKHG5 (11737974_s_at) / RFU LRRC4B (11730491_at) / Fold change /veh LRRC4B (11730491_at) / RFU GIMAP4 (11747438_a_at) / Fold change /veh GIMAP4 (11747438_a_at) / RFU KRT8 (11758183_x_at) / Fold change /veh KRT8 (11758183_x_at) / RFU CNN1 (11734310_a_at) / Fold change /veh CNN1 (11734310_a_at) / RFU VPS37D (11726825_at) / Fold change /veh VPS37D (11726825_at) / RFU C10orf10 (11716522_x_at) / Fold change /veh C10orf10 (11716522_x_at) / RFU KIR2DL2 /// KIR2DL4 /// KIR2DL5A /// KIR2DL5B /// KIR2DS1 /// KIR2DS2 /// KIR2DS3 /// KIR2DS4 /// KIR3DL3 /// KIR3DL3 /// KIR3DS1 (11738374_at) / Fold change /veh KIR2DL2 /// KIR2DL4 /// KIR2DL5A /// KIR2DL5B /// KIR2DS1 /// KIR2DS2 /// KIR2DS3 /// KIR2DS4 /// KIR3DL3 /// KIR3DL3 /// KIR3DS1 (11738374_at) / RFU C1QL1 (11718748_at) / Fold change /veh C1QL1 (11718748_at) / RFU TMPRSS4 (11747572_a_at) / Fold change /veh TMPRSS4 (11747572_a_at) / RFU HAMP (11756126_x_at) / Fold change /veh HAMP (11756126_x_at) / RFU RNFT2 (11725882_a_at) / Fold change /veh RNFT2 (11725882_a_at) / RFU NR4A2 (11747474_a_at) / Fold change /veh NR4A2 (11747474_a_at) / RFU ABCC12 (11746883_a_at) / Fold change /veh ABCC12 (11746883_a_at) / RFU TMEM136 (11760407_x_at) / Fold change /veh TMEM136 (11760407_x_at) / RFU CLDN22 /// WWC2 (11732394_at) / Fold change /veh CLDN22 /// WWC2 (11732394_at) / RFU HLA-DPB1 (11760878_x_at) / Fold change /veh HLA-DPB1 (11760878_x_at) / RFU SPINT1 (11716480_a_at) / Fold change /veh SPINT1 (11716480_a_at) / RFU GAP43 (11754022_s_at) / Fold change /veh GAP43 (11754022_s_at) / RFU A4GNT (11735810_at) / Fold change /veh A4GNT (11735810_at) / RFU PRB3 (11715151_x_at) / Fold change /veh PRB3 (11715151_x_at) / RFU TUBB4B (11761932_at) / Fold change /veh TUBB4B (11761932_at) / RFU CAPN14 (11732068_a_at) / Fold change /veh CAPN14 (11732068_a_at) / RFU TMCC2 (11721928_a_at) / Fold change /veh TMCC2 (11721928_a_at) / RFU IRGQ (11745062_a_at) / Fold change /veh IRGQ (11745062_a_at) / RFU FAM174B (11720279_a_at) / Fold change /veh FAM174B (11720279_a_at) / RFU TMPRSS4 (11748680_a_at) / Fold change /veh TMPRSS4 (11748680_a_at) / RFU FAM212B (11763350_a_at) / Fold change /veh FAM212B (11763350_a_at) / RFU PLEKHG5 (11743358_a_at) / Fold change /veh PLEKHG5 (11743358_a_at) / RFU ZSCAN30 (11745921_a_at) / Fold change /veh ZSCAN30 (11745921_a_at) / RFU CMKLR1 (11741424_a_at) / Fold change /veh CMKLR1 (11741424_a_at) / RFU LOC101060620 /// MAPK8IP1 (11723275_at) / Fold change /veh LOC101060620 /// MAPK8IP1 (11723275_at) / RFU SPTSSB (11747773_x_at) / Fold change /veh SPTSSB (11747773_x_at) / RFU PRSS12 (11739890_at) / Fold change /veh PRSS12 (11739890_at) / RFU BIN1 (11741810_x_at) / Fold change /veh BIN1 (11741810_x_at) / RFU WNT11 (11732464_a_at) / Fold change /veh WNT11 (11732464_a_at) / RFU C10orf10 (11716521_a_at) / Fold change /veh C10orf10 (11716521_a_at) / RFU C5orf56 (11738089_at) / Fold change /veh C5orf56 (11738089_at) / RFU CYB561 (11721691_x_at) / Fold change /veh CYB561 (11721691_x_at) / RFU ANKRD19P (11752326_a_at) / Fold change /veh ANKRD19P (11752326_a_at) / RFU OR2T12 /// OR2T33 /// OR2T8 (11738714_s_at) / Fold change /veh OR2T12 /// OR2T33 /// OR2T8 (11738714_s_at) / RFU VCAN (11748164_a_at) / Fold change /veh VCAN (11748164_a_at) / RFU JSRP1 (11732532_at) / Fold change /veh JSRP1 (11732532_at) / RFU KRTAP10-11 (11738290_x_at) / Fold change /veh KRTAP10-11 (11738290_x_at) / RFU MYO3A (11730013_a_at) / Fold change /veh MYO3A (11730013_a_at) / RFU EBF3 (11725865_a_at) / Fold change /veh EBF3 (11725865_a_at) / RFU CAMK2N1 (11719241_x_at) / Fold change /veh CAMK2N1 (11719241_x_at) / RFU C5orf56 (11738088_a_at) / Fold change /veh C5orf56 (11738088_a_at) / RFU OLFML3 (11715873_a_at) / Fold change /veh OLFML3 (11715873_a_at) / RFU LOC100653217 /// NTM (11731650_a_at) / Fold change /veh LOC100653217 /// NTM (11731650_a_at) / RFU MAPK11 (11762145_a_at) / Fold change /veh MAPK11 (11762145_a_at) / RFU FIZ1 (11724087_x_at) / Fold change /veh FIZ1 (11724087_x_at) / RFU OASL (11726364_x_at) / Fold change /veh OASL (11726364_x_at) / RFU SOX15 (11748057_x_at) / Fold change /veh SOX15 (11748057_x_at) / RFU CD79A (11719716_a_at) / Fold change /veh CD79A (11719716_a_at) / RFU HIST1H1D (11736915_at) / Fold change /veh HIST1H1D (11736915_at) / RFU CASKIN2 (11723855_a_at) / Fold change /veh CASKIN2 (11723855_a_at) / RFU LOC730098 (11760151_x_at) / Fold change /veh LOC730098 (11760151_x_at) / RFU OR4N2 (11742367_at) / Fold change /veh OR4N2 (11742367_at) / RFU PRRT2 (11749266_a_at) / Fold change /veh PRRT2 (11749266_a_at) / RFU SNX32 (11753110_a_at) / Fold change /veh SNX32 (11753110_a_at) / RFU CDHR5 (11726645_a_at) / Fold change /veh CDHR5 (11726645_a_at) / RFU RCAN1 (11760418_a_at) / Fold change /veh RCAN1 (11760418_a_at) / RFU FAM167A (11723789_a_at) / Fold change /veh FAM167A (11723789_a_at) / RFU FAM26E (11764081_at) / Fold change /veh FAM26E (11764081_at) / RFU ISYNA1 (11749810_s_at) / Fold change /veh ISYNA1 (11749810_s_at) / RFU ACY1 (11761880_at) / Fold change /veh ACY1 (11761880_at) / RFU 11764098_at / Fold change /veh 11764098_at / RFU SAMD14 (11745864_x_at) / Fold change /veh SAMD14 (11745864_x_at) / RFU NPB (11741838_a_at) / Fold change /veh NPB (11741838_a_at) / RFU TMPRSS6 (11731388_a_at) / Fold change /veh TMPRSS6 (11731388_a_at) / RFU KRTAP10-2 (11738614_at) / Fold change /veh KRTAP10-2 (11738614_at) / RFU ARHGAP8 /// PRR5-ARHGAP8 (11727945_x_at) / Fold change /veh ARHGAP8 /// PRR5-ARHGAP8 (11727945_x_at) / RFU KRTAP5-7 /// NADSYN1 (11734609_at) / Fold change /veh KRTAP5-7 /// NADSYN1 (11734609_at) / RFU RASL12 (11751679_a_at) / Fold change /veh RASL12 (11751679_a_at) / RFU CDKN2B (11736163_a_at) / Fold change /veh CDKN2B (11736163_a_at) / RFU PRF1 (11729649_at) / Fold change /veh PRF1 (11729649_at) / RFU, ZNF638 /// ZNF638-IT1 / Fold change vs veh, ZNF638 /// ZNF638-IT1 / RFU, PANK3 / Fold change vs veh, PANK3 / RFU, SH3YL1 / Fold change vs veh, SH3YL1 / RFU, ZEB2 / Fold change vs veh, ZEB2 / RFU, NRIP1 / Fold change vs veh, NRIP1 / RFU, PTTG1IP / Fold change vs veh, PTTG1IP / RFU, CAPN2 / Fold change vs veh, CAPN2 / RFU, MED14 / Fold change vs veh, MED14 / RFU, SNORA58 / Fold change vs veh, SNORA58 / RFU, C1orf63 / Fold change vs veh, C1orf63 / RFU, LRRFIP1 / Fold change vs veh, LRRFIP1 / RFU, NDUFAF7 / Fold change vs veh, NDUFAF7 / RFU, SLC12A2 / Fold change vs veh, SLC12A2 / RFU, IBTK / Fold change vs veh, IBTK / RFU, ESF1 / Fold change vs veh, ESF1 / Fold change vs veh, TMEM50B / RFU, TAOK1 / Fold change vs veh, TAOK1 / RFU, ACBD3 / Fold change vs veh, ACBD3 / RFU, TMA16 / Fold change vs veh, TMA16 / RFU, RWDD3 / Fold change vs veh, RWDD3 / RFU, BCAT1 / Fold change vs veh, BCAT1 / RFU, EDEM3 / Fold change vs veh, EDEM3 / RFU, TMEM33 / Fold change vs veh, TMEM33 / RFU, WDR75 / Fold change vs veh, WDR75 / RFU, AHCTF1 / Fold change vs veh, AHCTF1 / RFU, TFRC / Fold change vs veh, TFRC / RFU, ZDHHC17 / Fold change vs veh, ZDHHC17 / RFU, NOM1 / Fold change vs veh, NOM1 / RFU, ARL8B / Fold change vs veh, ARL8B / RFU, ZBTB11 / Fold change vs veh, ZBTB11 / RFU, TAMM41 / Fold change vs veh, TAMM41 / RFU, KIAA1704 /// LOC100996395 / Fold change vs veh, KIAA1704 /// LOC100996395 / RFU, ING1 / Fold change vs veh, ING1 / RFU, TRMT61B / Fold change vs veh, TRMT61B / RFU, FUBP3 / Fold change vs veh, FUBP3 / RFU, TP53 / Fold change vs veh, TP53 / RFU, TNKS2 / Fold change vs veh, TNKS2 / RFU, ZFP14 / Fold change vs veh, ZFP14 / RFU, ACTR2 / Fold change vs veh, ACTR2 / RFU, PPP3R1 / Fold change vs veh, PPP3R1 / RFU, PIK3R1 / Fold change vs veh, PIK3R1 / RFU, HNRNPA1 / Fold change vs veh, HNRNPA1 / RFU, RNF170 / Fold change vs veh, RNF170 / RFU, ZNF28 / Fold change vs veh, ZNF28 / RFU, RNGTT / Fold change vs veh, RNGTT / RFU, OGT / Fold change vs veh, OGT / RFU, BRD1 / Fold change vs veh, BRD1 / RFU, MARS / Fold change vs veh, MARS / RFU, ZNF655 / Fold change vs veh, ZNF655 / RFU, FAHD1 / Fold change vs veh, FAHD1 / RFU, BDP1 / Fold change vs veh, BDP1 / RFU, LRRCC1 / Fold change vs veh, LRRCC1 / RFU, ARID1A / Fold change vs veh, ARID1A / RFU, ZNF146 / Fold change vs veh, ZNF146 / RFU, ZNF330 / Fold change vs veh, ZNF330 / RFU, GPN3 / Fold change vs veh, GPN3 / RFU, C9orf123 / Fold change vs veh, C9orf123 / RFU, N4BP2L2 / Fold change vs veh, N4BP2L2 / RFU, ARFIP1 / Fold change vs veh, ARFIP1 / RFU, FAM179B / Fold change vs veh, FAM179B / RFU, BCL10 / Fold change vs veh, BCL10 / RFU, UHRF1BP1L / Fold change vs veh, UHRF1BP1L / RFU, BET1 / Fold change vs veh, BET1 / RFU, CNOT2 / Fold change vs veh, CNOT2 / RFU, ZNF268 / Fold change vs veh, ZNF268 / Fold change vs veh, ZNF507 / RFU, DGCR2 / Fold change vs veh, DGCR2 / RFU, WDSUB1 / Fold change vs veh, WDSUB1 / Fold change vs veh, HSP90B1 /// MIR3652 / RFU, ADSS / Fold change vs veh, ADSS / RFU, GK / Fold change vs veh, GK / RFU, ZNF148 / Fold change vs veh, ZNF148 / RFU, TAF9 / Fold change vs veh, TAF9 / RFU, SLC1A5 / Fold change vs veh, SLC1A5 / RFU, SLMO2 / Fold change vs veh, SLMO2 / RFU, ABCC4 / Fold change vs veh, ABCC4 / RFU, LOC101060439 /// RAP1B / Fold change vs veh, LOC101060439 /// RAP1B / RFU, RFX7 / Fold change vs veh, RFX7 / RFU, GTPBP10 / Fold change vs veh, GTPBP10 / RFU, CNEP1R1 / Fold change vs veh, CNEP1R1 / RFU, BIVM-ERCC5 /// ERCC5 / Fold change vs veh, BIVM-ERCC5 /// ERCC5 / RFU, ILF3 / Fold change vs veh, ILF3 / RFU 11762660_at / Fold change /veh 11762660_at / RFU VCAN (11757783_s_at) / Fold change /veh VCAN (11757783_s_at) / RFU DDX43 (11728927_at) / Fold change /veh DDX43 (11728927_at) / RFU KRT8 (11758188_x_at) / Fold change /veh KRT8 (11758188_x_at) / RFU NKD1 (11759106_at) / Fold change /veh NKD1 (11759106_at) / RFU SRD5A1 (11742802_a_at) / Fold change /veh SRD5A1 (11742802_a_at) / RFU TPSAB1 /// TPSB2 (11721975_s_at) / Fold change /veh TPSAB1 /// TPSB2 (11721975_s_at) / RFU GSTM3 (11746129_a_at) / Fold change /veh GSTM3 (11746129_a_at) / RFU IL23R (11737362_x_at) / Fold change /veh IL23R (11737362_x_at) / RFU TMEM51 (11727254_a_at) / Fold change /veh TMEM51 (11727254_a_at) / RFU PIWIL2 (11732686_x_at) / Fold change /veh PIWIL2 (11732686_x_at) / RFU ORM1 (11744905_x_at) / Fold change /veh ORM1 (11744905_x_at) / RFU CCDC152 (11743942_at) / Fold change /veh CCDC152 (11743942_at) / RFU ECM1 (11717891_a_at) / Fold change /veh ECM1 (11717891_a_at) / RFU IL23R (11748794_a_at) / Fold change /veh IL23R (11748794_a_at) / RFU TNFAIP8L3 (11732012_x_at) / Fold change /veh TNFAIP8L3 (11732012_x_at) / RFU MBOAT4 (11741988_at) / Fold change /veh MBOAT4 (11741988_at) / RFU 11764193_at / Fold change /veh 11764193_at / RFU TMEM53 (11763286_at) / Fold change /veh TMEM53 (11763286_at) / RFU MAGEB2 (11727129_at) / Fold change /veh MAGEB2 (11727129_at) / RFU TMEM200A (11744735_a_at) / Fold change /veh TMEM200A (11744735_a_at) / RFU CCDC152 (11751479_a_at) / Fold change /veh CCDC152 (11751479_a_at) / RFU FAM211A (11726209_a_at) / Fold change /veh FAM211A (11726209_a_at) / RFU RGS16 (11746705_a_at) / Fold change /veh RGS16 (11746705_a_at) / RFU VCAN (11755009_s_at) / Fold change /veh VCAN (11755009_s_at) / RFU RHOB (11743442_s_at) / Fold change /veh RHOB (11743442_s_at) / RFU RGS16 (11720943_a_at) / Fold change /veh RGS16 (11720943_a_at) / RFU RGS16 (11720944_at) / Fold change /veh RGS16 (11720944_at) / RFU, VPS4B / Fold change vs veh, VPS4B / RFU, CREB1 / Fold change vs veh, CREB1 / RFU, DNAJC13 / Fold change vs veh, DNAJC13 / RFU, GNAQ / Fold change vs veh, GNAQ / RFU, CDK5R1 / Fold change vs veh, CDK5R1 / RFU, ZRANB3 / Fold change vs veh, ZRANB3 / RFU, CUL4A / Fold change vs veh, CUL4A / RFU, CCNY / Fold change vs veh, CCNY / RFU, UFL1 / Fold change vs veh, UFL1 / RFU, COG3 / Fold change vs veh, COG3 / RFU, DIAPH2 / Fold change vs veh, DIAPH2 / RFU, SKA2 / Fold change vs veh, SKA2 / RFU, AFF3 / Fold change vs veh, AFF3 / RFU, LMF1 / Fold change vs veh, LMF1 / RFU, IPO11 / Fold change vs veh, IPO11 / RFU, DFFB / Fold change vs veh, DFFB / RFU, FOXP1 / Fold change vs veh, FOXP1 / RFU, CARD8 / Fold change vs veh, CARD8 / RFU, STRN3 / Fold change vs veh, STRN3 / RFU, ADK / Fold change vs veh, ADK / RFU, RASSF2 / Fold change vs veh, RASSF2 / RFU, WIPF1 / Fold change vs veh, WIPF1 / RFU, LARP1B / Fold change vs veh, LARP1B / RFU, RASA1 / Fold change vs veh, RASA1 / RFU, RB1 / Fold change vs veh, RB1 / RFU, PPFIA1 / Fold change vs veh, PPFIA1 / RFU, MAT2A / Fold change vs veh, MAT2A / RFU, CCT5 / Fold change vs veh, CCT5 / RFU, WDR92 / Fold change vs veh, WDR92 / RFU, CUX1 / Fold change vs veh, CUX1 / RFU, TTC7A / Fold change vs veh, TTC7A / RFU, TMEM135 / Fold change vs veh, TMEM135 / RFU, DEPTOR / Fold change vs veh, DEPTOR / RFU, CPM / Fold change vs veh, CPM / RFU, DNAJB6 / Fold change vs veh, DNAJB6 / RFU, CACNA2D3 / Fold change vs veh, CACNA2D3 / RFU, DTX4 / Fold change vs veh, DTX4 / RFU, TFCP2 / Fold change vs veh, TFCP2 / RFU, GMCL1 /// GMCL1P1 / Fold change vs veh, GMCL1 /// GMCL1P1 / RFU, AEBP2 / Fold change vs veh, AEBP2 / RFU, SNHG1 /// SNORD22 /// SNORD25 /// SNORD26 /// SNORD27 /// SNORD28 /// SNORD29 /// SNORD31 / Fold change vs veh, SNHG1 /// SNORD22 /// SNORD25 /// SNORD26 /// SNORD27 /// SNORD28 /// SNORD29 /// SNORD31 / Fold change (Aza/veh), C12orf56 (ProbeSet 11735607_a_at) / Fold change (ACY-1035/veh), C12orf56 (ProbeSet 11735607_a_at) / Fold change (Aza/veh), FGFR1OP (ProbeSet 11751329_s_at) / Fold change (ACY-1035/veh), FGFR1OP (ProbeSet 11751329_s_at) / Fold change (Aza/veh), VPS36 (ProbeSet 11739960_a_at) / Fold change (ACY-1035/veh), VPS36 (ProbeSet 11739960_a_at) / RFU SYPL1 (11715823_x_at) / Fold change /veh SYPL1 (11715823_x_at) / RFU IGFBP7 (11715501_s_at) / Fold change /veh IGFBP7 (11715501_s_at) / RFU REEP3 (11722064_at) / Fold change /veh REEP3 (11722064_at) / RFU IGLL1 (11728026_x_at) / Fold change /veh IGLL1 (11728026_x_at): dose or concentration left out as unconfirmed
Conditions: MV-4-11 cells, 48 hours

SMILES: Nc1ncn([C@@H]2O[C@H](CO)[C@@H](O)[C@H]2O)c(=O)n1 [azacitidine]
- RFU C5orf56 (11738089_at): 11.14 RFU

From PMC5218480 (PLoS ONE, 2017)
